The structures appear in SMILES notation.

This note sets out measurements from patent publication US6699854B2, “Anti-cancer compounds” (Cyclacel Limited, priority 2000, dated 2004).

One assay relates to A549. Nature of the assay: 72-h MTT cytotoxicity assay, A549. The class given is cell-based, human. The note with it: Homo sapiens, A549, read-out: A549. As for the experimental part:
Selected compounds from the above examples were subjected to a standard cellular proliferation assay using a range of different human tumour cell lines. Standard 72-h MTT (thiazolyl blue; 3-{4,5-dimethylthiazol-2-yl}-2,5-diphenyltetrazolium bromide) assays were performed (Haselsberger, K.; Peterson, D. C.; Thomas, D. G.; Darling, J. L. Anti Cancer Drugs 1996, 7, 331-8; Loveland, B. E.; Johns, T. G.; Mackay, I. R.; Vaillant, F.; Wang, Z. X.; Hertzog, P. J. Biochemistry International 1992, 27, 501-10). Human tumour cell lines were obtained from the ATCC (American Type Culture Collection, 10801 University Boulevard, Manessas, Va. 20110-2209, USA).
A general note: Tetrazolium assays rely on reduction of a dye to a coloured formazan, in cell work by metabolically active cells.
For the molecule `CNc1nc(C)c(-c2ccnc(Nc3ccc(O)cc3)n2)s1` [Compound 63, 4-{4-(4-Methyl-2-methylamino-thiazol-5-yl)-pyrimidin-2-ylamino}-phenol], the IC50 is 0.8 ± 0.2 µM.

Staying with this assay, now noted: Homo sapiens, Table 4, additional data for cytotoxicity assay using the A549 cell line; read-out: A549.
For the molecule `Clc1cc(-c2ccnc(Nc3ccccc3Cl)n2)c(Cl)s1` [Compound 2, (2-Chloro-phenyl)-{4-(2,5-dichloro-thiophen-3-yl)-pyrimidin-2-yl}-amine], the IC50 is 41 ± 8 µM.

Take `Clc1ccc(Nc2nccc(-c3cc(Cl)sc3Cl)n2)cc1` [Compound 3, (4-Chloro-phenyl)-{4-(2,5-dichloro-thiophen-3-yl)-pyrimidin-2-yl}-amine]: the IC50 stood at 5 ± 4 µM.

As to `Clc1cccc(Nc2nccc(-c3cc(Cl)sc3Cl)n2)c1` [Compound 4, (3-Chloro-phenyl)-{4-(2,5-dichloro-thiophen-3-yl)-pyrimidin-2-yl}-amine], the IC50 came out at 16 ± 11 µM.

For `Cc1nc(C)c(-c2ccnc(Nc3cccc(Cl)c3)n2)s1` [Compound 7, (3-Chloro-phenyl)-{4-(2,4-dimethyl-thiazol-5-yl)-pyrimidin-2-yl}-amine], the IC50 is 2.8 µM.

With `Cc1cc(-c2ccnc(Nc3ccccc3Cl)n2)c(C)s1` [Compound 15, (2-Chloro-phenyl)-{4-(2,5-dimethyl-thiophen-3-yl)-pyrimidin-2-yl}-amine], the IC50 was 6 µM.

For the molecule `Cc1nc(C)c(-c2ccnc(Nc3ccc(F)cc3F)n2)s1` [Compound 22, (2,4-Difluoro-phenyl)-{4-(2,4-dimethyl-thiazol-5-yl)-pyrimidin-2-yl}-amine], the IC50 came to 20 ± 1 µM.

For `Cc1nc(C)c(-c2ccnc(Nc3cc(Cl)cc(Cl)c3)n2)s1` [Compound 24, (3,5-Dichloro-phenyl)-{4-(2,4-dimethyl-thiazol-5-yl)-pyrimidin-2-yl}-amine], the IC50 came out at 5 µM.

`Cc1nc(C)c(-c2ccnc(Nc3ccc(Cl)cc3Cl)n2)s1` [Compound 25, (2,4-Dichloro-phenyl)-{4-(2,4-dimethyl-thiazol-5-yl)-pyrimidin-2-yl}-amine]: the IC50 came to 1.5 µM.

In the case of `Cc1nc(C)c(-c2ccnc(Nc3cccc(C(F)(F)F)c3)n2)s1` [Compound 26, {4-(2,4-Dimethyl-thiazol-5-yl)-pyrimidin-2-yl}-(3-trifluoromethyl-phenyl)-amine], the IC50 amounted to 3.3 µM.

Regarding `Cc1nc(C)c(-c2ccnc(Nc3ccccc3C(F)(F)F)n2)s1` [Compound 27, {4-(2,4-Dimethyl-thiazol-5-yl)-pyrimidin-2-yl}-(2-trifluoromethyl-phenyl)-amine], the IC50 turned out to be 3.8 µM.

Turning to `Cc1nc(C)c(-c2ccnc(Nc3cccc(Br)c3)n2)s1` [Compound 30, (3-Bromo-phenyl)-{4-(2,4-dimethyl-thiazol-5-yl)-pyrimidin-2-yl}-amine], the IC50 amounted to 6.4 ± 0.05 µM.

For the molecule `Cc1nc(C)c(-c2ccnc(Nc3ccccc3I)n2)s1` [Compound 32, {4-(2,4-Dimethyl-thiazol-5-yl)-pyrimidin-2-yl}-(2-iodo-phenyl)-amine], the IC50 amounted to 23 µM.

On to `Cc1nc(C)c(-c2ccnc(Nc3cccc(F)c3)n2)s1` [Compound 35, {4-(2,4-Dimethyl-thiazol-5-yl)-pyrimidin-2-yl}-(3-fluoro-phenyl)-amine], for which the IC50 was 4.2 µM.

Turning to `Cc1nc(C)c(-c2ccnc(Nc3cccc(O)c3)n2)s1` [Compound 40, 3-{4-(2,4-Dimethyl-thiazol-5-yl)-pyrimidin-2-ylamino}-phenol], the IC50 was 0.3 µM.

Take `Cc1nc(C)c(-c2ccnc(Nc3ccc(O)cc3)n2)s1` [Compound 41, 4-{4-(2,4-Dimethyl-thiazol-5-yl)-pyrimidin-2-ylamino}-phenol]: the IC50 is 0.02 µM.

`Cc1nc(C)c(-c2ccnc(NS(=O)(=O)c3cccc([N+](=O)[O-])c3)n2)s1` [Compound 42, N-{4-(2,4-Dimethyl-thiazol-5-yl)-pyrimidin-2-yl}-3-nitro-benzenesulfonamide]: the IC50 came out at 56 µM.

In the case of `Cc1nc(C)c(-c2ccnc(Nc3cccc(N)c3)n2)s1` [Compound 47, N-{4-(2,4-Dimethyl-thiazol-5-yl)-pyrimidin-2-yl}-benzene-1,3-diamine], the IC50 amounted to 1.8 ± 1.4 µM.

As for `Cc1nc(-c2ccccc2)sc1-c1ccnc(Nc2ccc(F)c(F)c2)n1` [Compound 59, (3,4-Difluoro-phenyl)-{4-(4-methyl-2-phenyl-thiazol-5-yl)-pyrimidin-2-yl}-amine], the IC50 was 22 ± 21 µM.

`Cc1nc(C)c(-c2cc(-c3ccc(C(F)(F)F)cc3)nc(Nc3ccc(Cl)cc3)n2)s1` [Compound 65, (4-Chloro-phenyl)-{4-(2,4-dimethyl-thiazol-5-yl)-6-(4-trifluoromethyl-phenyl)-pyrimidin-2-yl}-amine]: the IC50 was found to be 55 ± 50 µM.

`COc1cc(-c2cc(-c3sc(C)nc3C)nc(Nc3ccc(F)cc3)n2)cc(OC)c1O` [Compound 69, 4-{6-(2,4-Dimethyl-thiazol-5-yl)-2-(4-fluoro-phenylamino)-pyrimidin-4-yl}-2,6-dimethoxy-phenol]: the IC50 was 12 ± 5 µM.

As for `Cc1nc(C)c(-c2cc(-c3ccc(O)cc3)nc(Nc3ccc(F)cc3)n2)s1` [Compound 70, 4-{6-(2,4-Dimethyl-thiazol-5-yl)-2-(4-fluoro-phenylamino)-pyrimidin-4-yl}-phenol], the IC50 was found to be 3 ± 1 µM.

With `CNc1nc(C)c(-c2ccnc(Nc3cccc(O)c3)n2)s1` [Compound 85, 3-{4-(4-Methyl-2-methylamino-thiazol-5-yl)-pyrimidin-2-ylamino}-phenol], the IC50 worked out at 0.4 µM.

Regarding `CCOC(=O)c1cc(Nc2nccc(-c3sc(C)nc3C)n2)ccc1Cl` [Compound 92, 2-Chloro-5-{4-(2,4-dimethyl-thiazol-5-yl)-pyrimidin-2-ylamino}-benzoic acid ethyl ester], the IC50 came to 4.4 ± 3 µM.

As to `CCOC(=O)c1cccc(Cl)c1Nc1nccc(-c2sc(C)nc2C)n1` [Compound 93, 3-Chloro-2-{4-(2,4-dimethyl-thiazol-5-yl)-pyrimidin-2-ylamino}-benzoic acid ethyl ester], the IC50 is 1.1 ± 1 µM.

With `COc1ccc(Nc2nccc(-c3sc(C)nc3C)n2)c(O)c1` [Compound 95, 2-{4-(2,4-Dimethyl-thiazol-5-yl)-pyrimidin-2-ylamino}-5-methoxy-phenol], the IC50 is 0.05 ± 0.03 µM.

For `COC(=O)c1cc(Nc2nccc(-c3sc(C)nc3C)n2)ccc1Cl` [Compound 99, 2-Chloro-5-{4-(2,4-dimethyl-thiazol-5-yl)-pyrimidin-2-ylamino}-benzoic acid methyl ester], the IC50 came out at 3.7 ± 2.7 µM.

Take `COC(=O)c1ccc(Nc2nccc(-c3sc(C)nc3C)n2)cc1Cl` [Compound 101, 2-Chloro-4-{4-(2,4-dimethyl-thiazol-5-yl)-pyrimidin-2-ylamino}-benzoic acid methyl ester]: the IC50 turned out to be 0.9 ± 0.2 µM.

`CNc1nc(C)c(-c2ccnc(Nc3ccc(F)c(F)c3)n2)s1` [Compound 104, (3,4-Difluoro-phenyl)-{4-(4-methyl-2-methylamino-thiazol-5-yl)-pyrimidin-2-yl}-amine]: the IC50 came to 4.9 ± 2.5 µM.

Staying with this assay, now noted: Table 4, additional data for cytotoxicity assay using the A549 cell line; read-out: A549.
On to `Cc1nc(C)c(-c2cc(-c3ccccc3)nc(Nc3cccc([N+](=O)[O-])c3)n2)s1` [Compound 57, {4-(2,4-Dimethyl-thiazol-7-yl)-6-phenyl-pyrimidin-2-yl}-(3-nitro-phenyl)-amine], for which the IC50 is 5.2 ± 0.4 µM.

As to `C=CCNc1nc(C)c(-c2ccnc(Nc3cccc([N+](=O)[O-])c3)n2)s1` [Compound 91, {4-(2-Allylamino-4-methyl-thiazol-5-yl)-pyrimidin-2-yl}-(3-nitro-phenyl)-amine], the IC50 is 22.1 ± 0.2 µM.

For another assay, the target named is T1, CDK2/cyclin E (Homo sapiens, UniProt P24941).
T1 construct: His; made in house; host or cells: Sf9 insect cells (baculovirus)
In words: CDK2/cyclin E kinase assay (GST-Rb phosphorylation).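 Also: enzyme source: His-tagged CDK2/cyclin E co-expressed in Sf9 insect cells via baculovirus, then purified by metal-chelate chromatography.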 The note with it: Table 2, further results for CDK2/cyclin E inhibition; read-out: CDK2/cyclin E. Type of assay: biochemical.
`O=[N+]([O-])c1cccc(Nc2nccc(-c3cc(Cl)sc3Cl)n2)c1` [Compound 9, {4-(2,5-Dichloro-thiophen-3-yl)-pyrimidin-2-yl}-(3-nitro-phenyl)-amine]: the IC50 turned out to be 4.7 µM.

As for `Cc1nc(C)c(-c2ccnc(Nc3ccc(F)cc3F)n2)s1` [Compound 22, (2,4-Difluoro-phenyl)-{4-(2,4-dimethyl-thiazol-5-yl)-pyrimidin-2-yl}-amine], the IC50 came out at 0.02 µM.

`Cc1nc(C)c(-c2ccnc(Nc3cc(F)cc(F)c3)n2)s1` [Compound 23, (3,5-Difluoro-phenyl)-{4-(2,4-dimethyl-thiazol-5-yl)-pyrimidin-2-yl}-amine]: the IC50 was 1.7 µM.

As to `Cc1nc(C)c(-c2ccnc(Nc3cccc(Br)c3)n2)s1` [Compound 30, (3-Bromo-phenyl)-{4-(2,4-dimethyl-thiazol-5-yl)-pyrimidin-2-yl}-amine], the IC50 was found to be 0.94 ± 0.49 µM.

`Cc1nc(C)c(-c2ccnc(Nc3ccc(F)c(F)c3)n2)s1` [Compound 36, (3,4-Difluoro-phenyl)-{4-(2,4-dimethyl-thiazol-5-yl)-pyrimidin-2-yl}-amine]: the IC50 came out at 0.5 ± 0.2 µM.

As to `Cc1nc(C)c(-c2cc(Br)nc(Nc3cccc([N+](=O)[O-])c3)n2)s1` [Compound 54, {4-Bromo-6-(2,4-dimethyl-thiazol-5-yl)-pyrimidin-2-yl}-(3-nitro-phenyl)-amine], the IC50 amounted to 0.01 µM.

Take `CNc1nc(C)c(-c2ccnc(Nc3cccc(F)c3)n2)s1` [Compound 103, (3-Fluoro-phenyl)-{4-(4-methyl-2-methylamino-thiazol-5-yl)-pyrimidin-2-yl}-amine]: the IC50 is 1.2 µM.

`CNc1nc(C)c(-c2ccnc(Nc3cccc(Cl)c3)n2)s1` [Compound 108, (3-Chloro-phenyl)-{4-(4-methyl-2-methylamino-thiazol-5-yl)-pyrimidin-2-yl}-amine]: the IC50 came out at 0.8 µM.

Turning to `Cc1nc(N)sc1-c1ccnc(Nc2ccc(O)cc2)n1` [Compound 114, 4-{4-(2-Amino-4-methyl-thiazol-5-yl)-pyrimidin-2-ylamino}-phenol], the IC50 stood at 1.4 µM.

For `CCN(CC)CCOCc1cccc(Nc2nccc(-c3sc(C)nc3C)n2)c1` [Compound 118, {3-(2-Diethylamino-ethoxymethyl)-phenyl}-{4-(2,4-dimethyl-thiazol-5-yl)-pyrimidin-2-yl}-amine], the IC50 turned out to be 0.7 µM.
